Legend:
NPY Y1 receptor = molecular target: T1, NPY Y1 receptor (Homo sapiens, UniProt P25929); test: Affinity for NPY Y1 receptor (membranes from SK-N-MC cells); settings: membranes from Y1-expression cells (human neuroblastoma, SK-N-MC); read-out: Binding IC50 for NPY Y1 receptor
T1 construct: membranes prepared from Y1-expression cells (human neuroblastoma, SK-N-MC); endogenous in cells; host or cells: SK-N-MC human neuroblastoma cells (membranes)
T1 sequence (P25929 1-384): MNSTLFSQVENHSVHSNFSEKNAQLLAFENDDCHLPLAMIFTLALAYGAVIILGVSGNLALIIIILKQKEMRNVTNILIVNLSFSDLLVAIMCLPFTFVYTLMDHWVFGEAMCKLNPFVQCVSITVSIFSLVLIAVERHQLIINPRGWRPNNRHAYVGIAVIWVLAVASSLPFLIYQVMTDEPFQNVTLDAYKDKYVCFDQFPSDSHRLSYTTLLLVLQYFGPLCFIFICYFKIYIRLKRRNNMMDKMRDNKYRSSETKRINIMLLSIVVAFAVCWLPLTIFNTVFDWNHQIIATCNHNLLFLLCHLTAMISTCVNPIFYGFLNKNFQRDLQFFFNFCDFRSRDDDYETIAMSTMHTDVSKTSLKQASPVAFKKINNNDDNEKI
Description: (§1) The membranes prepared from the above CHO cells expressing NPY Y5 receptor, the compound of the present invention and 30,000 cpm [^125I] peptide YY (60 pM of final concentration: Amersham) were incubated in the assay buffer (20 mM HEPES-Hanks buffer containing 0.1% bovine serum albumin, pH 7.4) at 25° C. for 2 hours, and then the mixture was filtered with a glassfilter GF/C treated with polyethyleneimine. After the glassfilter was washed with 50 mM Tris-HCl buffer (pH 7.4), the radioactivity on the filter was measured with a gamma counter. The non-specific binding was detected in the presence of 200 nM of peptide YY. The 50% inhibitory concentration of the test compound against the specific peptide YY binding (IC50 value) was calculated (Inui, A. et al. Endocrinology 131, 2090-2096 (1992)).
(§2) Using the membranes prepared from Y1-expression cells (human neuroblastoma, SK-N-MC) and the membranes prepared from Y2-expression cells (human neuroblastoma, SMS-KAN), the experiment was carried out in a similar way as Experiment 1 to determine the affinity for NPY Y1 receptor and NPY Y2 receptor.

NPY Y2 receptor = molecular target: T2, NPY Y2 receptor (Homo sapiens, UniProt P49146); test: Affinity for NPY Y2 receptor (membranes from SMS-KAN cells); settings: membranes from Y2-expression cells (human neuroblastoma, SMS-KAN); read-out: Binding IC50 for NPY Y2 receptor
T2 construct: membranes prepared from Y2-expression cells (human neuroblastoma, SMS-KAN); endogenous in cells; host or cells: SMS-KAN human neuroblastoma cells (membranes)
T2 sequence (P49146 1-381): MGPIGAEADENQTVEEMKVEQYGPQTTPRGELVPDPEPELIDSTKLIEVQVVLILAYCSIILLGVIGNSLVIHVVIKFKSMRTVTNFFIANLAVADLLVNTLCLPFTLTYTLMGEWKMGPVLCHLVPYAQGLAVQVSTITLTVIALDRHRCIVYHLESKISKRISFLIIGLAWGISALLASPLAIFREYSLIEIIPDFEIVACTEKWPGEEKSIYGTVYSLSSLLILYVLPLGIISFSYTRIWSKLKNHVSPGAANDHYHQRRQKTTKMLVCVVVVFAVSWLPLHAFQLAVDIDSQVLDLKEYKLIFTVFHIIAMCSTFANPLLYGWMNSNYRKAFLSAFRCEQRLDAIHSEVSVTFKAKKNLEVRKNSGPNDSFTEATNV
Description: as §1, §2

human NPY Y5 receptor [1] = molecular target: T3, human NPY Y5 receptor (Homo sapiens, UniProt Q15761); test: Affinity for NPY Y5 receptor ([125I] peptide YY binding, CHO cell membranes); settings: inhibition of specific [125I] peptide YY binding, membranes of CHO cells expressing NPY Y5 receptor
T3 construct: expressed in transfected cells
T3 sequence (Q15761 1-445): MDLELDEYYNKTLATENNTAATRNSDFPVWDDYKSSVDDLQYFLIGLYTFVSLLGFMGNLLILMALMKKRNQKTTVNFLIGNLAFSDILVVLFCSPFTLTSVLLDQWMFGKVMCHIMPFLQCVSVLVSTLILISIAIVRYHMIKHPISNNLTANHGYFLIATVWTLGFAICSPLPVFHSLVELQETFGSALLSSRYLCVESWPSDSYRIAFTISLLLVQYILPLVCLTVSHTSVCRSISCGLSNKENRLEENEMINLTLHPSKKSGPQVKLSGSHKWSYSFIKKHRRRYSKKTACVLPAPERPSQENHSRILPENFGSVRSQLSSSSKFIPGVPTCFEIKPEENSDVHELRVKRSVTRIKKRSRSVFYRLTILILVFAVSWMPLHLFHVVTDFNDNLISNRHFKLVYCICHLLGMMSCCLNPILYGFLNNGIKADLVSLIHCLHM
Procedure, shortened: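 Membranes from CHO cells stably expressing human NPY Y5 receptor incubated with test compound and [125I] peptide YY (60 pM final) in HEPES-Hanks buffer with 0.1% BSA, pH 7.4, 25° C for 2 hours. Filter-bound radioactivity counted; non-specific binding with 200 nM peptide YY; IC50 against specific binding calculated.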

human NPY Y5 receptor [2] = molecular target: T3, human NPY Y5 receptor; test: cAMP production inhibitory activity in CHO cells; format: cell-based; settings: against 50 nM NPY inhibition of forskolin stimulated cAMP, CHO cells expressing human NPY Y5 receptor
Procedure, shortened: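 CHO cells expressing human NPY Y5 receptor preincubated 20 min at 37 °C with 2.5 mM IBMX, then with compound for 5 min. Stimulated with 50 nM NPY plus 10 μM forskolin for 30 min. Reaction stopped with 1N HCl; supernatant cAMP measured by EIA.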

Row | Structure (SMILES) | IC50 (NPY Y1 receptor) [nM] | IC50 (NPY Y2 receptor) [nM] | IC50 (human NPY Y5 receptor [1]) [nM] | IC50 (human NPY Y5 receptor [2]) [nM]
1 | COc1ccc(NC(=O)C2CCC(NS(=O)(=O)C(C)(C)C)CC2)cc1 (centres unmarked) [Ia-16] | ≥ 100000 | ≥ 100000 | 0.1 | –
2 | CC(C)S(=O)(=O)NC1CCC(C(=O)Nc2ccc(OC3CCCC3)cc2)CC1 (centres unmarked) [Ia-198] | – | – | 0.23 | 2.6
3 | Cc1cc(C(=O)NC(C)C)ccc1NC(=O)C1CCC(NS(=O)(=O)C(C)(C)C)CC1 (centres unmarked) [Ia-201] | – | – | 3.1 | 74
4 | CC(C)(C)S(=O)(=O)NC1CCC(C(=O)Nc2ccc(-c3cccs3)cc2)CC1 (centres unmarked) [Ia-202] | – | – | 0.37 | 3.4
5 | CC(C)(C)S(=O)(=O)NC1CCC(C(=O)Nc2ccc(C3CCCCC3)cc2)CC1 (centres unmarked) [Ia-203] | – | – | 0.2 | 2.6
6 | CC(C)S(=O)(=O)NC1CCC(C(=O)Nc2ccc(-c3ncco3)cc2)CC1 (centres unmarked) [Ia-204] | – | – | 1 | 6.3
7 | CC(C)(C)S(=O)(=O)NC1CCC(C(=O)Nc2ccc(OC3CCOC3)cc2)CC1 (centres unmarked) [Ia-205] | – | – | 2.4 | 99
8 | CC(C)(C)S(=O)(=O)NC1CCC(C(=O)Nc2ccc(OCC3CCCCO3)cc2)CC1 (centres unmarked) [Ia-206] | – | – | 1.9 | 460
9 | CC(C)(C)S(=O)(=O)NC1CCC(C(=O)Nc2cccc(N3CCCS3(=O)=O)c2)CC1 (centres unmarked) [Ia-207] | – | – | 0.55 | 5.9
10 | CC(C)(C)S(=O)(=O)NC1CCC(C(=O)Nc2ccc(N3CCCS3(=O)=O)cc2)CC1 (centres unmarked) [Ia-208] | – | – | 1.2 | 9.7
11 | CC(C)(C)S(=O)(=O)Nc1ccc(C(=O)Nc2ccc(-c3ccco3)cc2)cc1 [Ia-210] | – | – | 2.8 | 99
12 | CC(C)(C)S(=O)(=O)Nc1ccc(C(=O)Nc2ccc(-c3ncco3)cc2)cc1 [Ia-211] | – | – | 4.8 | 240
13 | CC(C)(C)S(=O)(=O)Nc1ccc(C(=O)Nc2ccc(OC3CCCC3)cc2)cc1 [Ia-212] | – | – | 0.52 | 2.6
14 | CC(C)(C)S(=O)(=O)Nc1ccc(C(=O)Nc2ccc(-c3cccs3)cc2)cc1 [Ia-213] | – | – | 0.91 | 28
15 | CC(C)(C)S(=O)(=O)NC1CCN(C(=O)Nc2ccc(C(F)(F)F)cc2)CC1 [Ia-219] | – | – | 2.5 | 28
16 | CC(C)(C)S(=O)(=O)NC1CCN(C(=O)Nc2ccc(C3CCCCC3)cc2)CC1 [Ia-221] | – | – | 0.47 | 1.5
17 | CC(C)S(=O)(=O)NC1CCN(C(=O)Nc2ccc(C(F)(F)F)cc2)CC1 [Ia-222] | – | – | 3.7 | 18
18 | CC(C)S(=O)(=O)NC1CCN(C(=O)Nc2ccc(C3CCCCC3)cc2)CC1 [Ia-224] | – | – | 0.1 | 1.2
19 | CC(C)(C)S(=O)(=O)NC1CCN(C(=O)Nc2ccc(OC3CCOCC3)cc2)CC1 [Ia-225] | – | – | 3.4 | 20
20 | CC(C)S(=O)(=O)NCCCCC(=O)Nc1ccc2c(c1)C(=O)N(c1ccccc1)C2=O [Ia-226] | – | – | 0.37 | 21
21 | CC(C)S(=O)(=O)NC1CCN(C(=O)Nc2ccc(OC3CCOCC3)cc2)CC1 [Ia-237] | – | – | 1.1 | 15
22 | CC(C)(C)S(=O)(=O)NC1CCC(C(=O)Nc2cccc(C3CCOCC3)c2)CC1 (centres unmarked) [Ia-246] | – | – | 0.26 | 20
23 | CC(C)(C)S(=O)(=O)NC1CCC(C(=O)Nc2ccc(C3(O)CCOCC3)cc2)CC1 (centres unmarked) [Ia-247] | – | – | 0.79 | 31
24 | CC(C)(C)S(=O)(=O)NC1CCC(C(=O)Nc2ccc(C3CCOCC3)cc2)CC1 (centres unmarked) [Ia-248] | – | – | 0.27 | 17

More lines, now with the values ahead:

Row | IC50 (NPY Y1 receptor) [nM] | IC50 (NPY Y2 receptor) [nM] | IC50 (human NPY Y5 receptor [1]) [nM] | IC50 (human NPY Y5 receptor [2]) [nM] | Structure (SMILES)
25 | ≥ 100000 | ≥ 100000 | – | – | CCCCc1ccc(NC(=O)CCCNS(=O)(=O)C(C)(C)C)cc1 [Compound I-27]
26 | ≥ 100000 | ≥ 100000 | – | – | CCCCc1ccc(C(=O)NC2CCC(NS(=O)(=O)C(C)(C)C)CC2)cc1 (centres unmarked) [Compound I-32]
27 | ≥ 100000 | ≥ 100000 | 5.3 | 38.2 | CC(C)(C)S(=O)(=O)NC1CCC(C(=O)Nc2ccc(N3CCOCC3)cc2)CC1 (centres unmarked) [Compound I-41]
28 | ≥ 100000 | ≥ 100000 | 1.2 | 27.9 | CC(C)(C)S(=O)(=O)NC1CCC(C(=O)Nc2ccc(N3CCCCC3)cc2)CC1 (centres unmarked) [Compound I-45]
29 | ≥ 100000 | ≥ 100000 | 0.8 | 10.5 | CCn1c2ccccc2c2cc(NC(=O)C3CCC(NS(=O)(=O)C(C)(C)C)CC3)ccc21 (centres unmarked) [Compound I-46]
30 | ≥ 100000 | ≥ 100000 | 0.6 | 14.9 | CC(C)(C)S(=O)(=O)NC1CCC(C(=O)Nc2ccc(I)cc2)CC1 (centres unmarked) [Compound I-47]
31 | ≥ 100000 | ≥ 100000 | – | – | CC(C)(C)S(=O)(=O)NC1CCC(C(=O)Nc2ccc(F)cc2)CC1 (centres unmarked) [Compound I-48]
32 | ≥ 100000 | ≥ 100000 | 0.4 | 8.1 | CC(C)(C)S(=O)(=O)NC1CCC(C(=O)Nc2ccc(N3CCCC3)cc2)CC1 (centres unmarked) [Compound I-49]
33 | ≥ 100000 | ≥ 100000 | 0.8 | 35 | CC(C)(C)S(=O)(=O)NC1CCC(C(=O)Nc2ccc(N3CC=CCC3)cc2)CC1 (centres unmarked) [Compound I-59]
34 | ≥ 100000 | ≥ 100000 | 0.26 | 5.3 | CC(C)(C)S(=O)(=O)NC1CCC(C(=O)Nc2ccc(-n3cccc3)cc2)CC1 (centres unmarked) [Compound I-61]
35 | ≥ 100000 | ≥ 100000 | 1.3 | 50 | CC(C)(C)S(=O)(=O)NC1CCC(C(=O)Nc2ccc(Br)cc2)CC1 (centres unmarked) [Compound I-63]
36 | ≥ 100000 | ≥ 100000 | 2.2 | 80 | CC(C)(C)S(=O)(=O)NC1CCC(C(=O)Nc2ccc3c(c2)OCO3)CC1 (centres unmarked) [Compound I-64]
37 | ≥ 100000 | ≥ 100000 | 1.5 | 30 | Cc1cc(=O)oc2cc(NC(=O)C3CCC(NS(=O)(=O)C(C)(C)C)CC3)ccc12 (centres unmarked) [Compound I-66]
38 | ≥ 100000 | ≥ 100000 | 3.8 | 13 | CN(C)c1cccc(NC(=O)C2CCC(NS(=O)(=O)C(C)(C)C)CC2)c1 (centres unmarked) [Compound I-69]
39 | ≥ 100000 | ≥ 100000 | 2.3 | 2.1 | C[C@@H]1CN(c2ccc(NC(=O)[C@H]3CC[C@H](NS(=O)(=O)C(C)(C)C)CC3)cc2)C[C@H](C)O1 [Compound I-72]
40 | ≥ 100000 | ≥ 100000 | 0.88 | 46 | CC(C)(C)S(=O)(=O)NC1CCC(C(=O)NCCSc2cc(C(F)(F)F)nc3ccccc23)CC1 (centres unmarked) [Compound I-152]

From US7265130B2, “NPY Y5 antagonist” (Shionogi & Co., Ltd., priority 1999, dated 2007)
